Results taken from patent US10172814B2, “Substituted pyridyl-cycloalkyl-carboxylic acids, compositions containing them and medical uses thereof” (BAYER PHARMA AKTIENGESELLSCHAFT, priority 2014, dated 2019).

Biological target: human PTGES (Homo sapiens (Human), UniProt O14684)
Assay: Human PTGES biochemical enzyme inhibition assay (conversion of PGH2 to PGE2, TR-FRET)
Conditions: Enzymatic conversion of PGH2 to PGE2; read-out: Human PTGES IC50
Experimental: Human PTGES Biochemical Enzyme Inhibition Assay:
PTGES (Microsomal prostaglandin E synthase 1) is an enzyme that converts prostaglandin H2 (PGH2) to prostaglandin E2 (PGE2) in the presence of reduced glutathione (GSH).
Recombinant proteins (human isoforms) of PTGES containing a FLAG tag, expressed in baculovirus infected insect cells (Hi-5) and purified by affinity chromatography was used as enzyme in the assay. Substrate was prostaglandin H2 (Cayman Chemicals).
4 ul of a solution of human PTGES in assay buffer [100 mM sodium phosphate pH 7.2, 2.5 mM Glutathion reduced, 1 mM EDTA, 0.01% BSA, 0.4 mM DTT, 0.15 mM n-dodecylmaltoside] was added to the well containing test compound and incubated for 15-20 minutes to allow binding of the compound to the enzyme prior to the enzymatic reaction. The reaction was started by addition of 1 ul of an ice cold solution containing PGH2 (40 nM in assay buffer resulting in a final concentration of 8 nM PGH2 in the assay). […] The concentration of each isoform of PTGES was adapted to the activity of the respective enzyme preparation to maintain linear reaction properties within the reaction time. […] The reaction was stopped by addition of 1 ul of a solution containing 15 mM SnCl2 and 400 mM KF in water. SnCl2 converts the remaining unstable PGH2 to stable PGF2alpha. Then, 3 ul of the a first detection solution containing PGE2-D2 (Cisbio Bioassays, TR-FRET reagent, diluted according to the manufacturer's recommendation, typically 1:20 in reconstitution buffer) was added. […] The resulting mix was incubated overnight at 4° C. to allow the formation of a complex of PGE2 and the detection reagents. […] Dilution series were made prior to the assay in a 100 fold concentrated form by serial dilution. IC50 values were calculated by 4-Parameter fitting.

Chain of human PTGES (O14684 whole entry): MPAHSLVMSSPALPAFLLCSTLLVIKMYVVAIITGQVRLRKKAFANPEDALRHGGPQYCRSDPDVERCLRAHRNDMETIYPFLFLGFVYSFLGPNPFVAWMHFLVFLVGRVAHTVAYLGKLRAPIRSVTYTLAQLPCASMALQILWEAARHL

| SMILES | IC50 |
| --- | --- |
| CCc1cncc(-c2ccc(C(C(=O)Nc3cccc(CCC(=O)O)c3C)C3CCCC3)cc2)c1 (racemic) [Example 13, (R/S) 3-[3-({Cyclopentyl[4-(5-ethylpyridin-3-yl)phenyl]acetyl}amino)-2-methylphenyl]propanoic acid] | 78.2 nM |
| Cc1c(NC(=O)C(c2ccc(-c3cncc(F)c3)cc2)C2CCCC2)cccc1C(C)CC(=O)O (mixture of isomers) [Example 95, (3R/S)-3-[3-({(2R/S)-2-Cyclopentyl-2-[4-(5-fluoropyridin-3-yl)phenyl]acetyl}amino)-2-methylphenyl]butanoic acid] | 41.7 nM |
| Cc1c(CCC(=O)O)cccc1NC(=O)C(c1ccc(-c2cncc(C(F)(F)F)c2)c(Cl)c1)C1CCCC1 (racemic) [Example 175, (R/S) 3-[3-({[3-chloro-4-(5-(trifluoromethyl)pyridin-3-yl)phenyl](cyclopentyl)acetyl}amino)-2-methylphenyl]propanoic acid] | 34.6 nM |
| CCOc1cncc(-c2ccc(C(C(=O)Nc3cccc(CCC(=O)O)c3C)C3CCCC3)c(F)c2)c1 (racemic) [Example 52, (R/S) 3-[3-({Cyclopentyl[4-(5-ethoxypyridin-3-yl)-2-fluorophenyl]acetyl}amino)-2-methylphenyl]propanoic acid] | 273 nM |
| Cc1c(CC(C)C(=O)O)cccc1NC(=O)C(c1ccc(-c2cncc(C(F)(F)F)c2)cc1)C1CCCC1 (single isomer, unassigned; stereoisomer 2) [Example 70, 3-{3-[(Cyclopentyl{4-[5-(trifluoromethyl)pyridin-3-yl]phenyl}acetyl)amino]-2-methylphenyl}-2-methylpropanoic acid, Stereoisomer 2] | 52.9 nM |
| Cc1cc(C(C(=O)Nc2cccc(CCC(=O)O)c2C)C2CCCC2)c(Cl)cc1-c1cnc(C)c(Cl)c1 (racemic) [Example 174, (R/S) 3-[3-({[2-chloro-4-(5-chloro-6-methylpyridin-3-yl)-5-methylphenyl](cyclopentyl)acetyl}amino)-2-methylphenyl]propanoic acid] | 444 nM |
| Cc1c(NC(=O)C(c2ccc(-c3cncc(Cl)c3)c(F)c2)C2CCCC2)cccc1C(C)CC(=O)O (single isomer, unassigned; stereoisomer 2) [Example 127, 3-[3-({[4-(5-Chloropyridin-3-yl)-3-fluorophenyl](cyclopentyl)acetyl}amino)-2-methylphenyl]butanoic acid, Stereoisomer 2] | 31.5 nM |
| CCC(CC(=O)O)c1cccc(NC(=O)[C@@H](c2ccc(-c3cncc(CC(F)(F)F)c3)cc2)C2CCCC2)c1C (single isomer, unassigned) [Example 200] | 17.7 nM |
| CCOc1cncc(-c2ccc(C(C(=O)Nc3cccc(C(CC)CC(=O)O)c3C)C3CCCC3)cc2)c1 (mixture of isomers) [Example 107, (3R/S)-3-[3-({(2R/S)-2-Cyclopentyl-2-[4-(5-ethoxypyridin-3-yl)phenyl]acetyl}amino)-2-methylphenyl]pentanoic acid] | 106 nM |
| CCC(CC(=O)O)c1cccc(NC(=O)C(c2ccc(-c3cnc(C)c(C(F)(F)F)c3)c(F)c2)C2CCCC2)c1C (single isomer, unassigned) [Example 201] | 6.57 nM |
| CCOc1cncc(-c2ccc(C(C(=O)Nc3cccc(C4CC4C(=O)O)c3C)C3CCCC3)cc2)c1 (centres unmarked) [Example 155, 2-[3-({2-cyclopentyl-2-[4-(5-ethoxypyridin-3-yl)phenyl]acetyl}amino)-2-methylphenyl]cyclopropanecarboxylic acid] | 158 nM |
| COc1ncccc1-c1ccc(C(C(=O)Nc2cccc(CCC(=O)O)c2C)C2CCCC2)cc1 (racemic) [Example 20, (R/S) 3-[3-({Cyclopentyl[4-(2-methoxypyridin-3-yl)-phenyl]acetyl}amino)-2-methylphenyl]propanoic acid] | 2550 nM |
| Cc1c(NC(=O)C(c2ccc(-c3cncc(C(F)(F)F)c3)cc2)C2CCCC2)cccc1OCC(=O)O (racemic) [Example 33, (R/S) {3-[(Cyclopentyl{4-[5-(trifluoromethyl)pyridin-3-yl]phenyl}acetyl)amino]-2-methylphenoxy}acetic acid] | 14.3 nM |
| Cc1ncc(-c2ccc(C(C(=O)Nc3cccc(CC(C)C(=O)O)c3C)C3CCCC3)cc2)cc1Cl (single isomer, unassigned; stereoisomer 2) [Example 84, 3-[3-({[4-(5-Chloro-6-methylpyridin-3-yl)phenyl](cyclopentyl)acetyl}amino)-2-methylphenyl]-2-methylpropanoic acid, Stereoisomer 2] | 41.1 nM |
| Cc1c(CCC(=O)O)cccc1NC(=O)C(c1ccc(-c2cncc(C(F)(F)F)c2)cc1)C1CC1 (racemic) [Example 32, (R/S) 3-{3-[(Cyclopropyl{4-[5-(trifluoromethyl)pyridin-3-yl]phenyl}acetyl)amino]-2-methylphenyl}propanoic acid] | 470 nM |
| Cc1c(CCC(=O)O)cccc1NC(=O)C(c1ccc(-c2cncc(C(F)(F)F)c2)cc1)C1CCC1 (racemic) [Example 54, (R/S) 3-{3-[(Cyclobutyl{4-[5-(trifluoromethyl)pyridin-3-yl]phenyl}acetyl)amino]-2-methylphenyl}propanoic acid] | 27.3 nM |
| Cc1cc(C(C(=O)Nc2cccc(CCC(=O)O)c2C)C2CCCC2)c(Cl)cc1-c1cncc(C(F)(F)F)c1 (racemic) [Example 173, (R/S) 3-(3-{[{2-chloro-5-methyl-4-[5-(trifluoromethyl)pyridin-3-yl]phenyl}(cyclopentyl)acetyl]amino}-2-methylphenyl)propanoic acid] | 1240 nM |
| Cc1cc(C(C(=O)Nc2cccc(CCC(=O)O)c2C)C2CCCC2)c(F)cc1-c1cncc(Cl)c1 (racemic) [Example 181, (R/S) 3-[3-({[4-(5-chloropyridin-3-yl)-2-fluoro-5-methylphenyl](cyclopentyl)acetyl}amino)-2-methylphenyl]propanoic acid] | 2300 nM |
| Cc1c(NC(=O)C(c2ccc(-c3cncc(C(F)F)c3)cc2)C2CCCC2)cccc1C(C)CC(=O)O (mixture of isomers) [Example 98, (3R/S)-3-(3-{[(2R/S)-2-Cyclopentyl-2-{4-[5-(difluoromethyl)pyridin-3-yl]phenyl}acetyl]amino}-2-methylphenyl)butanoic acid] | 33.8 nM |
| Cc1c(CCC(=O)O)cc(F)cc1NC(=O)C(c1ccc(-c2cncc(Cl)c2)cc1)C1CCCC1 (racemic) [Example 168, (R/S) 3-[3-({[4-(5-chloropyridin-3-yl)phenyl](cyclopentyl)acetyl}amino)-5-fluoro-2-methylphenyl]propanoic acid] | 1190 nM |
| Cc1cc(C(C(=O)Nc2cccc(CCC(=O)O)c2C)C2CCCC2)c(F)cc1-c1cnc(C)c(Cl)c1 (racemic) [Example 182, (R/S) 3-[3-({[4-(5-chloro-6-methylpyridin-3-yl)-2-fluoro-5-methylphenyl](cyclopentyl)acetyl}amino)-2-methylphenyl]propanoic acid] | 741 nM |
| Cc1ncc(-c2ccc([C@H](C(=O)Nc3cccc(N(C)CC(=O)O)c3C)C3CCCC3)cc2)cc1Cl [Example 187, N-[3-({(2R)-2-[4-(5-chloro-6-methylpyridin-3-yl)phenyl]-2-cyclopentylacetyl}amino)-2-methylphenyl]-N-methylglycine] | 23.9 nM |
| COCc1cncc(-c2ccc(C(C(=O)Nc3cccc(CCC(=O)O)c3C)C3CCCC3)cc2)c1 (racemic) [Example 10, (R/S) 3-{3-[(Cyclopentyl{4-[5-(methoxymethyl)pyridin-3-yl]phenyl}acetyl)amino]-2-methylphenyl}propanoic acid] | 470 nM |
| Cc1c(NC(=O)C(c2ccc(-c3cncc(C(F)(F)F)c3)c(F)c2)C2CCCC2)cccc1C(C)CC(=O)O (single isomer, unassigned; stereoisomer 4) [Example 119, 3-{3-[(Cyclopentyl{3-fluoro-4-[5-(trifluoromethyl)pyridin-3-yl]phenyl}acetyl)amino]-2-methylphenyl}butanoic acid, Stereoisomer 4] | 1060 nM |
| Cc1c(NC(=O)C(c2ccc(-c3cncc(Cl)c3)c(F)c2)C2CCC2)cccc1C(C)CC(=O)O (single isomer, unassigned; stereoisomer 3) [Example 152, 3-[3-({[4-(5-Chloropyridin-3-yl)-3-fluorophenyl](cyclobutyl)acetyl}amino)-2-methylphenyl]butanoic acid, Stereoisomer 3] | 914 nM |
| Cc1ncc(-c2ccc(C(C(=O)Nc3cccc(C(C)CC(=O)O)c3C)C3CCCC3)cc2F)cc1Cl (single isomer, unassigned; stereoisomer 3) [Example 123, 3-[3-({[4-(5-Chloro-6-methylpyridin-3-yl)-3-fluorophenyl](cyclopentyl)acetyl}amino)-2-methylphenyl]butanoic acid, Stereoisomer 3] | 646 nM |
